Molecules are shown by their SMILES. Residues, ends and D or L forms follow the SMILES beside them. *: point of attachment. Myristoyl = CCCCCCCCCCCCCC(=O)*

The subject of the data set is erythrocytes. The data set can be described thus: Haemoglobin assay of erythrocyte lysis. It counts as cell-based, rats. The note with it: rat erythrocytes, no bacteria; haemoglobin at 578 nm; 100% = Triton X100. The protocol:
Fresh rats blood was obtained with sodium heparin added to prevent clotting. Following centrifugation at 600 g for 10 mins and discarding of the supernatant, the pelleted erythrocytes were resuspended and washed three times in isotonic sucrose-glucose phosphate buffer (0.2M sucrose, 0.1M glucose 10 mM sodium phosphate, pH 7.3). Erythrocytes were used on the same day.
Leakage of haemoglobin from the erythrocytes (50 μl aliquots) was assayed spectrophotometrically at 578 nm against isotonic sucrose glucose phosphate buffer. Percentage lysis of the erythrocytes was established by construction of a standard curve. The supernatant from the centrifuged cells (3.2) represented 0% whereas 100% lysis obtained by incubation with 20 ul 10% v/v Triton X100 for 10 minutes.
Cultures were centrifuged at 600 g for 10 minutes and the supernatant examined spectrophotometrically as described above to assess erythrocyte lysis. In the presence of particles (but no bacteria) erythrocyte lysis varied between 0.88 and 0.61% with a mean of 0.73%. Addition of M-GALA alone to erythrocytes produced a lysis of 0.31%. No lysis occurred for erythrocytes left in buffer only.

`CCCCCCCCCCCCCC(=O)N[C@@H](Cc1c[nH]c2ccccc12)C(=O)N[C@@H](CCC(=O)O)C(=O)N[C@@H](C)C(=O)N[C@@H](C)C(=O)N[C@@H](CC(C)C)C(=O)N[C@@H](C)C(=O)N[C@@H](CCC(=O)O)C(=O)N[C@@H](C)C(=O)N[C@@H](CC(C)C)C(=O)N[C@@H](C)C(=O)N[C@@H](CCC(=O)O)C(=O)N[C@@H](C)C(=O)N[C@@H](CC(C)C)C(=O)N[C@@H](C)C(=O)N[C@@H](CCC(=O)O)C(=O)N[C@@H](Cc1c[nH]cn1)C(=O)N[C@@H](CC(C)C)C(=O)N[C@@H](C)C(=O)N[C@@H](CCC(=O)O)C(=O)N[C@@H](C)C(=O)N[C@@H](CC(C)C)C(=O)N[C@@H](C)C(=O)N[C@@H](CCC(=O)O)C(=O)N[C@@H](C)C(=O)N[C@@H](CC(C)C)C(=O)N[C@@H](CCC(=O)O)C(=O)N[C@@H](C)C(=O)N[C@@H](CC(C)C)C(=O)N[C@@H](C)C(=O)N[C@@H](C)C(=O)O` [M-GALA, N, Myristic-GALA] (Myristoyl-WEAALAEALAEALAEHLAEALAEALEALAA-OH) gave an erythrocyte lysis of 0.31%.

Source of the values: patent publication US7723056B1, “Particles” (The University of Manchester, priority 1997, dated 2010).
